# Test results taken from PMC11973282, “RAS70 peptide targets multiforme glioblastoma by binding to the plasma membrane heat shock protein HSP70” (Frontiers in Oncology, 2025).
# Read-outs that look alike come from different tables or passages of the source.
# Legend:
# [1] = system: C6 cells (lower chamber; HUVEC and astrocytes barrier)
# Experimental: (§1) Then, a peptide labeled with a fluorescent label was introduced into the upper chamber and co-incubation was carried out for 12, 24 and 36 hours. At the end of the incubation, the tumor cells were washed with cold phosphate-buffered saline (PBS) and fixed with a 4% solution of paraformaldehyde in PBS. Nuclei were stained with 4’,6-diamidino-2-phenylindole (DAPI). Fluorescent images were obtained using a Leica TCS SP8 confocal microscope (Leica, Germany). To avoid possible cross-interference of different fluorochromes, images for DAPI and FITC were obtained using a sequential sample scanning method. Fluorescently labeled cells were counted in the lower chamber. To estimate the mHsp70-mediated uptake of chaperone-targeted peptides tumor cells prior to incubation were pre-treated with anti-Hsp70 monoclonal antibodies SPA-810 (1:250, Stressgen) and SPA-815 (1:250 Stressgen). To exclude integrin (αvβ3, αvβ5)-mediated penetration of RAS70 tumor cells prior to incubation with peptides were pre-treated with anti- αvβ3 (1:200 clone LM609, ZMS1030, Sigma-Aldrich, USA), -αvβ5 (1:200 clone P1F6, MAB1961Z, Sigma-Aldrich, USA) monoclonal antibodies.
# (§2) Then, a peptide labeled with a fluorescent dye (FITC) was introduced into the upper chamber and co-incubation was carried out for 12, 24 and 36 hours. At the end of the incubation, the tumor cells were washed with cold phosphate-buffered saline (PBS) and fixed with a 4% solution of paraformaldehyde in PBS. Nuclei were stained with 4’,6-diamidino-2-phenylindole (DAPI).
# (§3) Data from 3 independent experiments are presented as M ± SE. […] Data from 3 independent experiments are presented as M ± SE. ** p < 0.01 for testing mean expression levels.
# [2] = system: high-grade glioma biopsy material; test: Ex vivo topical application on patient brain tumor specimens, confocal/fluorescent microscopy; set-up: species or system human
# Source text: To study RAS70 peptide accumulation in the brain tumors the latter were obtained from neuro-oncological patients. Intraoperative biopsy material obtained from adult (n=6) and pediatric (n=2) patients with radiological diagnosis of high-grade gliomas without previous radiation therapy and chemotherapy. The patients underwent microsurgical interventions between February 2024 and July 2024 ( Table 1 ). The study protocol was approved by the Ethics Committee of the Almazov Medical Research Centre (approval No. 2712-20, December 21, 2020).
# To evaluate local accumulation of the fluorescently-labeled peptides the latter were sprayed over the freshly dissected brain tumor specimens as follows (1): control group – PBS (50 μL) (2); NGL-sCy7.5 peptide (50 μl, at concentration of 100 μg) (3); NGL-RGD-sCy7.5 peptide (50 μl, at concentration of 100 μg) (4); TKD-sCy7.5 peptide (50 μl, at concentration of 100 μg) (5); […] peptide (50 μl, at concentration of 100 μg). […]
# Small pieces of brain tissue (50-100 mm³) were taken from patients or animals during surgery. […] Hoechst 33342 fluorescence was excited with a 405 nm laser and recorded in the range 410 to 550 nm; Hsp70-FITC and Mito Green fluorescence were excited with a 488 nm laser and recorded in the range 495 to 550 nm; and Cy5 fluorescence was excited with a 633 nm laser and recorded in the range 635 to 750 nm. […]
# To study the target properties of the peptide RAS70 ex vivo, biopsy material was obtained from adult (n=6) and pediatric (n=2) neurooncological patients ( Table 1 ). […] Subsequently, tumor was co-incubated with peptide at a concentration of 1 mg/mL for 5–10 minutes, after which the tissue sample was washed with a PBS solution and analyzed by live-cell inverted confocal microscopy ( Figures 11A–C ).
# To detect peptide localization, the biopsy material was additionally stained with a mitochondrial marker MitoGreen and anti-Hsp70 antibodies (SPA-810). […] Additionally, we assessed the depth of the RAS70-sCy3/sCy5 penetration into the tumor tissues […]. […]
# [3] = system: GL261 cells (lower chamber; HUVEC and astrocytes barrier)
# Experimental: as §1, §2, §3
# [4] = system: U251 cells (lower chamber; HUVEC and astrocytes barrier)
# Experimental: as §1, §2, §3
# [5] = system: C6 cells (lower chamber; HUVEC and astrocytes barrier); test: Transwell BBB model, peptide passage and accumulation in tumor cells; conditions: transwell BBB model: HUVEC (5×10^5) and astrocytes (5×10^5) in upper chamber, C6 (1×10^4) in lower chamber; FITC-labeled peptide; 36 hours; confocal microscopy count; M ± SE, 3 independent experiments
# Experimental: as §1, §2, §3
# [6] = system: GL261 cells (lower chamber; HUVEC and astrocytes barrier); test: as above; conditions: transwell BBB model: HUVEC (5×10^5) and astrocytes (5×10^5) in upper chamber, GL261 (1×10^4) in lower chamber; FITC-labeled peptide; 36 hours; confocal microscopy count; M ± SE, 3 independent experiments
# Experimental: as §1, §2, §3
# [7] = system: C6, GL261, and T98G cells; test: MTT test, overall statement for all cell lines studied; conditions: fluorescently labeled peptides, 7.5, 75, 750 µg/mL, 24, 48 and 72 hours
# Experimental: 3-(4,5-dimethylthiazol-2-yl)-2,5-diphenyltetrazolium bromide (MTT) assay was performed to evaluate the cytotoxic effect of TKD-sCy5, RAS70-sCy5, and NGL-RGD-sCy5 peptides. The C6, GL261, and T98G cells were seeded in 96-well plates (Thermo Fisher Scientific, Waltham, USA) at concentration of 5*10^3 cells in 100 µL per well, plates were incubated at 37°C in 5% CO2. After 24 hours, peptides were added to the culture medium for final concentration of 7.5, 75, and 750 μg/mL; plates were incubated for 24, 48 and 72 hours. […] At the end of the incubation period, 1 mg/mL MTT solution was added for 4 hours and dissolved with DMSO. The absorbance was measured at 570 nm using Varioskan LUX Multimode Microplate Reader (Thermo Fisher Scientific, Waltham, USA).
# Subsequently, we analyzed the cytotoxic effect of the peptides (RAS70, TKD, NGL, NGL-RGD) using the MTT test at various peptides concentrations (7.5, 75, 750 µg/mL) and co-incubation times of 24, 48 and 72 hours.
Compound,fluorescently labeled tumor cells in the lower chamber [1],"accumulation in patient brain tumor samples ([2]; 1 mg/mL, 5–10 minutes, live-cell inverted confocal microscopy, adult (n=6) and pediatric (n=2) patients)","depth of the peptide penetration into the tumor tissues ([2]; RAS70-sCy3/sCy5 topically applied on patient tumor samples, histological sections, fluorescent microscopy)","retention in necrotic tumor areas ([2]; patient tumor samples, confocal microscopy)",fluorescently labeled tumor cells in the lower chamber [3],fluorescently labeled tumor cells in the lower chamber [4],fluorescently labeled tumor cells in the lower chamber [5],fluorescently labeled tumor cells in the lower chamber [6],cytotoxic effect (MTT test) [7]
CC(C)C[C@H](NC(=O)[C@H](CC(C)C)NC(=O)[C@H](CC(N)=O)NC(=O)[C@H](CC(N)=O)NC(=O)[C@H](CC(=O)O)NC(=O)[C@H](CCCCN)NC(=O)[C@@H](N)[C@@H](C)O)C(=O)NCC(=O)N[C@@H](CCCNC(=N)N)C(=O)N[C@@H](Cc1ccccc1)C(=O)N[C@@H](CCC(=O)O)C(=O)N[C@@H](CC(C)C)C(=O)N[C@@H](CO)C(=O)NCC(=O)NCCC(=O)N[C@@H](CCCNC(=N)N)C(=O)NCC(=O)N[C@@H](CC(=O)O)C(=O)O [RAS70],567 ± 72 cells,noted in all analyzed samples,3.0 ± 0.87 mm,non-specific retention of the peptide,553 ± 61 cells,603 ± 87 cells,,,
CC(C)C[C@H](NC(=O)[C@H](CC(C)C)NC(=O)[C@H](CC(N)=O)NC(=O)[C@H](CC(N)=O)NC(=O)[C@H](CC(=O)O)NC(=O)[C@H](CCCCN)NC(=O)[C@@H](N)[C@@H](C)O)C(=O)NCC(=O)N[C@@H](CCCNC(=N)N)C(=O)N[C@@H](Cc1ccccc1)C(=O)N[C@@H](CCC(=O)O)C(=O)N[C@@H](CC(C)C)C(=O)N[C@@H](CO)C(=O)NCC(=O)O [TKD],,,,,,,301 ± 35 cells,289 ± 51 cells,did not reveal the toxic effect
